This passage reports GI50 and TGI results from PubChem BioAssay (NCI).

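These data come from cells grown in 96-well plates and exposed to compound for 48 hours at five concentrations. GI50 = concentration required for 50% inhibition of growth. TGI: total growth inhibition.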

One assay deals with SK-MEL-28 melanoma. The assay is described as follows: DTP human tumour cell line panel, 48 h.
For the compound `COc1cc(C2=C(c3cn(C)c4ccccc34)COC2=O)cc(OC)c1OC`, the GI50 was 754 nM and the TGI was determined as 29.8 µM.

`COc1ccc(Nc2c3ccccc3nc3occ(Cl)c23)cc1`: the GI50 is 26.5 nM and the TGI is 21.1 µM.

The next assay has as its system TK-10 renal. The assay is described as follows: DTP human tumour cell line panel, 48 h.
For the compound `N#C/C(=C/N1CCN(C(=O)c2ccco2)C1=S)C(=O)c1ccccc1`, the GI50 is 10.5 µM and the TGI was 28.8 µM.

For `Nc1nc(SN=Nc2ccc(S(N)(=O)=O)cc2)c2[nH]cnc2n1`, the GI50 was 0.448 µM and the TGI was determined as 23.6 µM.

Consider `COCCOc1cnc2ccn([C@H](C)c3nnc4c(F)cc(-c5cnn(C)c5)cn34)c(=O)c2c1`, for which the GI50 is more than 100 µM and the TGI is more than 100 µM.

As for `CCc1ccccc1NC(=O)c1sc2nc3c(cc2c1N)C(=O)CCC3`, the GI50 was 23.2 µM and the TGI is more than 100 µM.

As to `CC(C)CNC(=O)O`, the TGI is more than 100 µM.

In the case of `C[C@]12CC[C@@H]3c4ccc(O)cc4CC[C@H]3[C@@H]1CC[C@@H]2NS(=O)(=O)c1cccc(F)c1`, the GI50 was 4.14 µM and the TGI was 13.8 µM.

Consider `CCC(C)(C)c1ccc(OCCCCCCN2CCNCC2)cc1`, for which the GI50 is 1.8 µM and the TGI is 3.46 µM.

For `Cc1cc(S(=O)(=O)N/N=C(\Sc2cc(Cl)c(C)cc2S(N)(=O)=O)c2ccc(Cl)cc2)c(Cl)cc1Cl`, the GI50 is more than 100 µM and the TGI was more than 100 µM.

Regarding `COc1ccc(C(=O)COc2cccc(/C=C3\Oc4ccc5ccccc5c4C3=O)c2)cc1`, the GI50 was 12 µM and the TGI worked out at 24.7 µM.

Consider `COc1ccc(-c2oc3cc(O)c(OC)c(O)c3c(=O)c2OC)cc1O`, for which the GI50 is 21.1 µM and the TGI was more than 100 µM.

Take `COc1cc(C2=C(c3cn(C)c4ccccc34)COC2=O)cc(OC)c1OC`: the GI50 is 0.569 µM and the TGI worked out at 5.61 µM.

Take `COc1ccc(Nc2c3ccccc3nc3occ(Cl)c23)cc1`: the GI50 was 0.0228 µM and the TGI is 8.67 µM.

Consider `Cc1ccc(S(=O)(=O)NCCNc2nccc(-c3c(-c4ccc(F)cc4)nc4sccn34)n2)cc1`, for which the GI50 was 7.8 µM and the TGI is 42.6 µM.

As to `O=C(CSC(c1ccccc1)c1ccccc1)N/N=C/c1ccc(Cl)cc1Cl`, the GI50 is 26 µM and the TGI was 72 µM.

For a further assay, the system named is 786-0 renal. Put plainly: DTP human tumour cell line panel, 48 h.
Regarding `N#C/C(=C/N1CCN(C(=O)c2ccco2)C1=S)C(=O)c1ccccc1`, the GI50 is 16100 nM and the TGI was 44.6 µM.

In the case of `Nc1nc(SN=Nc2ccc(S(N)(=O)=O)cc2)c2[nH]cnc2n1`, the GI50 was 407 nM and the TGI is more than 100 µM.

As to `COCCOc1cnc2ccn([C@H](C)c3nnc4c(F)cc(-c5cnn(C)c5)cn34)c(=O)c2c1`, the GI50 was more than 100000 nM and the TGI was more than 100 µM.

For the compound `CCc1ccccc1NC(=O)c1sc2nc3c(cc2c1N)C(=O)CCC3`, the GI50 was 722 nM and the TGI was more than 74.2 µM.

For the compound `CC(C)CNC(=O)O`, the TGI was more than 100 µM.

For `C[C@]12CC[C@@H]3c4ccc(O)cc4CC[C@H]3[C@@H]1CC[C@@H]2NS(=O)(=O)c1cccc(F)c1`, the GI50 is 3380 nM and the TGI came out at 11.3 µM.

Consider `CCC(C)(C)c1ccc(OCCCCCCN2CCNCC2)cc1`, for which the GI50 was 1730 nM and the TGI was 3.23 µM.

Consider `Cc1cc(S(=O)(=O)N/N=C(\Sc2cc(Cl)c(C)cc2S(N)(=O)=O)c2ccc(Cl)cc2)c(Cl)cc1Cl`, for which the GI50 is 42100 nM and the TGI was more than 100 µM.

Take `COc1ccc(C(=O)COc2cccc(/C=C3\Oc4ccc5ccccc5c4C3=O)c2)cc1`: the GI50 was 2220 nM and the TGI is 6.73 µM.

Turning to `COc1ccc(-c2oc3cc(O)c(OC)c(O)c3c(=O)c2OC)cc1O`, the GI50 was 578 nM and the TGI was 7.42 µM.

Turning to `CCn1c(CO)nn(-c2cc(O[C@@H](C)C(F)(F)F)c(C(=O)Nc3c(F)cccc3Cl)cc2F)c1=O`, the GI50 was less than 19.7 nM and the TGI was more than 78 µM.

In the case of `Cc1cc(C2CC(O)C(CO)O2)cc2c(=O)[nH]c(N)nc12` (stereo not drawn), the GI50 is more than 100000 nM and the TGI was more than 100 µM.

For the compound `COc1cc(C2=C(c3cn(C)c4ccccc34)COC2=O)cc(OC)c1OC`, the GI50 is 317 nM and the TGI was more than 32.8 µM.

For the compound `COc1ccc(Nc2c3ccccc3nc3occ(Cl)c23)cc1`, the GI50 is 33.5 nM and the TGI turned out to be 21 µM.

`Cc1ccc(S(=O)(=O)NCCNc2nccc(-c3c(-c4ccc(F)cc4)nc4sccn34)n2)cc1`: the GI50 was 5650 nM and the TGI stood at 26.8 µM.

For `O=C(CSC(c1ccccc1)c1ccccc1)N/N=C/c1ccc(Cl)cc1Cl`, the GI50 was 40100 nM and the TGI is more than 100 µM.

In a further assay the test system is SK-MEL-5 melanoma. Put plainly: DTP human tumour cell line panel, 48 h.
`N#C/C(=C/N1CCN(C(=O)c2ccco2)C1=S)C(=O)c1ccccc1`: the GI50 was 8250 nM and the TGI was 22.2 µM.

In the case of `Nc1nc(SN=Nc2ccc(S(N)(=O)=O)cc2)c2[nH]cnc2n1`, the GI50 is 1260 nM and the TGI amounted to 5.97 µM.

As to `COCCOc1cnc2ccn([C@H](C)c3nnc4c(F)cc(-c5cnn(C)c5)cn34)c(=O)c2c1`, the GI50 was more than 100000 nM and the TGI is more than 100 µM.

`CCc1ccccc1NC(=O)c1sc2nc3c(cc2c1N)C(=O)CCC3`: the GI50 is 329 nM and the TGI is more than 100 µM.

`CC(C)CNC(=O)O` displayed a TGI of more than 100 µM.

Take `C[C@]12CC[C@@H]3c4ccc(O)cc4CC[C@H]3[C@@H]1CC[C@@H]2NS(=O)(=O)c1cccc(F)c1`: the GI50 is 1660 nM and the TGI worked out at 3.15 µM.
